Results: publication PMC9492542, “Brain-restricted mTOR inhibition with binary pharmacology” (Nature, 2022)
Read-outs that look alike come from different tables or passages of the source. One block for each molecule: values may come before it.

Tests used:
[1] = target: T1, FKBP12 (Homo sapiens, UniProt P62942); test: Competition fluorescence polarization assay with FITC-rapamycin tracer; type: binding
T1 construct: His-tag (HRV 3C cleavable) (cleaved yes); made in house; host or cells: Escherichia coli BL21(DE3)
Protocol: Compound binding affinity was determined using a competition fluorescence polarization assay. […] The assay buffer was 20 mM HEPES pH 7.5 and 0.01% Triton X-100. […] Data were fitted to a three-parameter sigmoidal curve to derive IC50 values. Ki of the compounds were calculated using a tool provided by S. Wang’s laboratory (http://www.umich.edu/~shaomengwanglab/software/calc_ki/index.html). Data were plotted in GraphPad Prism 9.0.

[2] = target: T2, mTOR (Homo sapiens, UniProt P42345); test: In vitro mTOR kinase inhibition assay (SelectScreen Z'-LYTE), with or without 10 µM FKBP12; type: biochemical; conditions: for remaining activity at 4.95 pM / remaining activity at 15.2 pM / remaining activity at 45.7 pM / remaining activity at 0.000137 µM / remaining activity at 0.000412 µM / remaining activity at 0.00123 µM / remaining activity at 0.0111 µM / remaining activity at 0.0333 µM / remaining activity at […]: read-out: residual kinase activity (mTOR); for remaining activity at 0.0333 µM: 33.3 nM drug
T2 construct: We performed in vitro kinase assays with purified mTOR protein; purchased SelectScreen Services (Thermo Fisher Scientific)
Protocol: In vitro kinase inhibition assays were performed by SelectScreen Services (Thermo Fisher Scientific) using either Z’-LYTE (mTOR, Src, Csk, EGFR, HER2 and HGK), Adapta (LRRK2) or LanthaScreen (DDR2) assay format (standardized protocols can be accessed on the SelectScreen website: https://www.thermofisher.com/us/en/home/products-and-services/services/custom-services/screening-and-profiling-services/selectscreen-profiling-service/selectscreen-kinase-profiling-service.html. When indicated, recombinant FKBP12 protein was added to the assay mixture to a final concentration of 10 µM.

[3] = recombinant FKBP12, Extended Data Fig. 2, read-out: Kd (FKBP12)

T1 sequence (P62942 whole entry): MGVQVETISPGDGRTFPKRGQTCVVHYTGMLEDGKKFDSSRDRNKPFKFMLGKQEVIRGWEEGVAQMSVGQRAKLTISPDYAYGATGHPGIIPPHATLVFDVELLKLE
T2 sequence (P42345 1360-2549 limits assumed): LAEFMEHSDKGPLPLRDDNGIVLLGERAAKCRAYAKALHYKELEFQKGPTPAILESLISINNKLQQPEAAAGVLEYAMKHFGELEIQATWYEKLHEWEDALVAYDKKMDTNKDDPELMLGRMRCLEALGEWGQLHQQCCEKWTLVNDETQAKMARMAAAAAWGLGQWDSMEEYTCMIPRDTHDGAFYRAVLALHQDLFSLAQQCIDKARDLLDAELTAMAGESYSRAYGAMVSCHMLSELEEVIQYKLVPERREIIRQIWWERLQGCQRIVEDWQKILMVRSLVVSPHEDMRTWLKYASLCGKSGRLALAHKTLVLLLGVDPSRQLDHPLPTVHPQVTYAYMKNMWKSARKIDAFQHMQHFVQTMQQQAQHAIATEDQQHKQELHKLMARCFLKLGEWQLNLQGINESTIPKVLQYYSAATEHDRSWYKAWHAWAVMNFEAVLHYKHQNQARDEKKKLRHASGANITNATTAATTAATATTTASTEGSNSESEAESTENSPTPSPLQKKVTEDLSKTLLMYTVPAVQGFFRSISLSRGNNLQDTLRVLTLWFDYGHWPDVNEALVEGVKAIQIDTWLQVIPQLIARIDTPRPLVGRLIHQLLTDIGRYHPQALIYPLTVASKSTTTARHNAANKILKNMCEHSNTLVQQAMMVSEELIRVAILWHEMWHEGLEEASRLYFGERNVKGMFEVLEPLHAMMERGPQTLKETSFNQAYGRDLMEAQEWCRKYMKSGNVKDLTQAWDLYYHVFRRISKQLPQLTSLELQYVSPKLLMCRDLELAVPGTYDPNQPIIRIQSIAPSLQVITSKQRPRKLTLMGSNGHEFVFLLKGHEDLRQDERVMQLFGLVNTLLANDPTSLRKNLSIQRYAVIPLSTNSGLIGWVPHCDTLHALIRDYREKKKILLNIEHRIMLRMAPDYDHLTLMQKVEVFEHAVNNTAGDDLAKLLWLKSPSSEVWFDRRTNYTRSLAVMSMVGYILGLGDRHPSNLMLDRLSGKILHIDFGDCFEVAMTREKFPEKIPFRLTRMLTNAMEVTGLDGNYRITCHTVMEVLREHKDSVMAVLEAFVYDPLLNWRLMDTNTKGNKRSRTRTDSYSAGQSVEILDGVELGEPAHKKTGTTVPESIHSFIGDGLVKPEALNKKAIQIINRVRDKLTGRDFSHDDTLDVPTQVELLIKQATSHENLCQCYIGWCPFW

Structure (SMILES): CO[C@H]1C[C@@H](C)C/C(C)=C/[C@@H](CCCc2ccccn2)C(=O)C[C@H](O)[C@@H](C)[C@@H](/C(C)=C/[C@@H]2CC[C@@H](O)[C@H](OC)C2)OC(=O)[C@@H]2CCCCN2C(=O)C(=O)[C@]2(O)O[C@H]1[C@@H](OC)C[C@H]2C [05-084 (06-039)]
Kd [1, 3]: 3.3 nM

Structure (SMILES): CCC(C)(C)C(=O)C(=O)N1CCCC[C@H]1C(=O)O[C@H](CCc1ccc(OC)c(OC)c1)c1cccc(NC(=O)C[N+](C)(C)C)c1 [Compound 01-025]
Kd [1, 3]: 95 nM

Structure (SMILES): CCC(C)(C)C(=O)C(=O)N1CCCC[C@H]1C(=O)O[C@H](CCc1ccc(OC)c(OC)c1)c1cccc(OCCN)c1 [Compound 01-038]
Kd [1, 3]: 9.4 nM

Structure (SMILES): CCC(C)(C)C(=O)C(=O)N1CCCC[C@H]1C(=O)O[C@H](CCc1ccc(OC)c(OC)c1)c1cccc(NC(=O)CN)c1 [Compound 01-040]
Kd [1, 3]: 21 nM

Structure (SMILES): CCC(C)(C)C(=O)C(=O)N1CCCC[C@H]1C(=O)O[C@H](CCc1ccc(OC)c(OC)c1)c1cccc(OCC(=O)O)c1 [Compound 01-041]
Kd [1, 3]: 38 nM

Structure (SMILES): CCC(C)(C)C(=O)C(=O)N1CCCC[C@H]1C(=O)O[C@H](CCc1ccc(OC)c(OC)c1)c1cccc(NC(=O)CN2CCOCC2)c1 [Compound 01-043]
Kd [1, 3]: 15 nM

Structure (SMILES): CCC(C)(C)C(=O)C(=O)N1CCCC[C@H]1C(=O)O[C@H](CCc1ccc(OC)c(OC)c1)c1cccc(NC(=O)CN(C)C)c1 [Compound 01-044]
Kd [1, 3]: 13 nM

Structure (SMILES): CCC(C)(C)C(=O)C(=O)N1CCCC[C@H]1C(=O)O[C@H](CCc1ccc(OC)c(OC)c1)c1cccc(NCC(=O)O)c1 [Compound 01-060A]
Kd [1, 3]: 46 nM

Structure (SMILES): CCC(C)(C)C(=O)C(=O)N1CCCC[C@H]1C(=O)O[C@H](CCc1ccc(OC)c(OC)c1)c1cccc(N(CC(=O)O)CC(=O)O)c1 [Compound 01-060B]
Kd [1, 3]: 75 nM

Structure (SMILES): CCC(C)(C)C(=O)C(=O)N1CCCC[C@H]1C(=O)O[C@H](CCc1ccc(OC)c(OC)c1)c1cccc(NC(=O)CNC(=N)N)c1 [Compound 01-065]
Kd [1, 3]: 38 nM

Structure (SMILES): CCC(C)(C)C(=O)C(=O)N1CCCC[C@H]1C(=O)O[C@H](CCc1ccc(OC)c(OC)c1)c1cccc(NC(=O)CNN)c1 [Compound 01-070]
Kd [1, 3]: 21 nM

Structure (SMILES): CCC(C)(C)C(=O)C(=O)N1CCCC[C@H]1C(=O)O[C@H](CCc1ccc(OC)c(OC)c1)c1cccc(NC(=O)CN2CCN(C)CC2)c1 [Compound 01-072]
Kd [1, 3]: 13 nM

Structure (SMILES): CO[C@H]1C[C@@H](C)C/C(C)=C/[C@@H](CCCC(=O)O)C(=O)C[C@H](O)[C@@H](C)[C@@H](/C(C)=C/[C@@H]2CC[C@@H](O)[C@H](OC)C2)OC(=O)[C@@H]2CCCCN2C(=O)C(=O)[C@]2(O)O[C@H]1[C@@H](OC)C[C@H]2C [Compound 05-020]
Kd [1]: 1.5 nM

Structure (SMILES): CO[C@H]1C[C@@H](C)C/C(C)=C/[C@@H](CCCSC[C@H](N)C(=O)O)C(=O)C[C@H](O)[C@@H](C)[C@@H](/C(C)=C/[C@@H]2CC[C@@H](O)[C@H](OC)C2)OC(=O)[C@@H]2CCCCN2C(=O)C(=O)[C@]2(O)O[C@H]1[C@@H](OC)C[C@H]2C [Compound 05-037]
Kd [1]: 8.7 nM

Structure (SMILES): CO[C@H]1C[C@@H](C)C/C(C)=C/[C@@H](CCCC(=O)Nc2ccccn2)C(=O)C[C@H](O)[C@@H](C)[C@@H](/C(C)=C/[C@@H]2CC[C@@H](O)[C@H](OC)C2)OC(=O)[C@@H]2CCCCN2C(=O)C(=O)[C@]2(O)O[C@H]1[C@@H](OC)C[C@H]2C [Compound 05-064]
Kd [1]: 0.2 nM

Structure (SMILES): CC(C)n1nc(-c2ccc3oc(N)nc3c2)c2c(N)ncnc21 [MLN128]
residual kinase activity (mTOR) ([2]; 0.00495 nM drug, +FKBP): 101
remaining activity at 4.95 pM ([2]; 0.00495 nM drug, +FKBP): 103%
residual kinase activity (mTOR) ([2]; 0.00495 nM drug, no FKBP): 101
remaining activity at 4.95 pM ([2]; 0.00495 nM drug, no FKBP): 105%
residual kinase activity (mTOR) ([2]; 0.0152 nM drug, +FKBP): 105
remaining activity at 15.2 pM ([2]; 0.0152 nM drug, +FKBP): 103%
residual kinase activity (mTOR) ([2]; 0.0152 nM drug, no FKBP): 106
remaining activity at 15.2 pM ([2]; 0.0152 nM drug, no FKBP): 101%
residual kinase activity (mTOR) ([2]; 0.0457 nM drug, +FKBP): 105
remaining activity at 45.7 pM ([2]; 0.0457 nM drug, +FKBP): 102%
residual kinase activity (mTOR) ([2]; 0.0457 nM drug, no FKBP): 104
remaining activity at 45.7 pM ([2]; 0.0457 nM drug, no FKBP): 102%
residual kinase activity (mTOR) ([2]; 0.137 nM drug, +FKBP): 101
remaining activity at 0.000137 µM ([2]; 0.137 nM drug, +FKBP): 106%
remaining activity at 0.000137 µM ([2]; 0.137 nM drug, no FKBP): 103%
residual kinase activity (mTOR) ([2]; 0.412 nM drug, +FKBP): 96
remaining activity at 0.000412 µM ([2]; 0.412 nM drug, +FKBP): 97%
residual kinase activity (mTOR) ([2]; 0.412 nM drug, no FKBP): 98
remaining activity at 0.000412 µM ([2]; 0.412 nM drug, no FKBP): 99%
residual kinase activity (mTOR) ([2]; 1.23 nM drug, +FKBP): 83
remaining activity at 0.00123 µM ([2]; 1.23 nM drug, +FKBP): 84%
residual kinase activity (mTOR) ([2]; 1.23 nM drug, no FKBP): 81
remaining activity at 0.00123 µM ([2]; 1.23 nM drug, no FKBP): 84%
remaining activity at 0.0111 µM ([2]; 11.1 nM drug, +FKBP): 19%
residual kinase activity (mTOR) ([2]; 11.1 nM drug, no FKBP): 17
remaining activity at 0.0111 µM ([2]; 11.1 nM drug, no FKBP): 18%
remaining activity at 0.0333 µM ([2]; +FKBP): 6%
remaining activity at 0.0333 µM ([2]; no FKBP): 6%
residual kinase activity (mTOR) ([2]; […] drug, +FKBP): 53
remaining activity at […] ([2]; […] drug, +FKBP): 49%
residual kinase activity (mTOR) ([2]; […] drug, no FKBP): 50
remaining activity at […] ([2]; […] drug, no FKBP): 48%

More lines, now with the values ahead:

Kd [1, 3]: 64 nM
Structure (SMILES): C=CC(=O)Nc1cccc([C@@H](CCc2ccc(OC)c(OC)c2)OC(=O)[C@@H]2CCCCN2C(=O)C(=O)C(C)(C)CC)c1 [Compound 02-014]

Kd [1, 3]: 36 nM
Structure (SMILES): CCC(C)(C)C(=O)C(=O)N1CCCC[C@H]1C(=O)O[C@H](CCc1ccc(OC)c(OC)c1)c1cccc(NCCN)c1 [Compound 02-032]

Kd [1, 3]: 64 nM
Structure (SMILES): CCC(C)(C)C(=O)C(=O)N1CCCC[C@H]1C(=O)O[C@H](CCc1ccc(OC)c(OC)c1)c1cccc(NC(=O)CS)c1 [Compound 02-055]

Kd [1, 3]: 6 nM
Structure (SMILES): CCC(C)(C)C(=O)C(=O)N1CCCC[C@H]1C(=O)O[C@H](CCc1ccc(OC)c(OC)c1)c1cccc(NC(=O)CN=[N+]=[N-])c1 [Compound 02-096]

Kd [1, 3]: 44 nM
Structure (SMILES): CCC(C)(C)C(=O)C(=O)N1CCCC[C@H]1C(=O)O[C@H](CCc1ccc(OC)c(OC)c1)c1cccc(NC(=O)CCOCCOCCN)c1 [Compound 03-077]

Kd [1, 3]: 31 nM
Structure (SMILES): CCC(C)(C)C(=O)C(=O)N1CCCC[C@H]1C(=O)O[C@H](CCc1ccc(OC)c(OC)c1)c1cccc(NC(=O)Cc2ccccn2)c1 [Compound 03-083]

Kd [1, 3]: 19 nM
Structure (SMILES): CCC(C)(C)C(=O)C(=O)N1CCCC[C@H]1C(=O)O[C@H](CCc1ccc(OC)c(OC)c1)c1cccc(NC(=O)CCOCCN)c1 [Compound 03-084]

Kd [1, 3]: 29 nM
Structure (SMILES): CCC(C)(C)C(=O)C(=O)N1CCCC[C@H]1C(=O)O[C@H](CCc1ccc(OC)c(OC)c1)c1cccc(NC(=O)Cc2cccc[n+]2[O-])c1 [Compound 03-087]

Kd [1, 3]: 0.7 nM
Structure (SMILES): CO[C@H]1C[C@@H](C)C/C(C)=C/[C@@H](CCCSCCN)C(=O)C[C@H](O)[C@@H](C)[C@@H](/C(C)=C/[C@@H]2CC[C@@H](O)[C@H](OC)C2)OC(=O)[C@@H]2CCCCN2C(=O)C(=O)[C@]2(O)O[C@H]1[C@@H](OC)C[C@H]2C [Compound 05-011]

Kd [1, 3]: 0.4 nM
Structure (SMILES): CO[C@H]1C[C@@H](C)C/C(C)=C/[C@@H](C/C=C/C(=O)O)C(=O)C[C@H](O)[C@@H](C)[C@@H](/C(C)=C/[C@@H]2CC[C@@H](O)[C@H](OC)C2)OC(=O)[C@@H]2CCCCN2C(=O)C(=O)[C@]2(O)O[C@H]1[C@@H](OC)C[C@H]2C [Compound 05-012]

Kd [1, 3]: 1.4 nM
Structure (SMILES): CO[C@H]1C[C@@H](C)C/C(C)=C/[C@@H](CCCSCCN(C)C)C(=O)C[C@H](O)[C@@H](C)[C@@H](/C(C)=C/[C@@H]2CC[C@@H](O)[C@H](OC)C2)OC(=O)[C@@H]2CCCCN2C(=O)C(=O)[C@]2(O)O[C@H]1[C@@H](OC)C[C@H]2C [Compound 05-013]

Kd [1, 3]: 2.5 nM
Structure (SMILES): CO[C@H]1C[C@@H](C)C/C(C)=C/[C@@H](CCCSCCNC(=O)CNc2ccccn2)C(=O)C[C@H](O)[C@@H](C)[C@@H](/C(C)=C/[C@@H]2CC[C@@H](O)[C@H](OC)C2)OC(=O)[C@@H]2CCCCN2C(=O)C(=O)[C@]2(O)O[C@H]1[C@@H](OC)C[C@H]2C [Compound 05-028]

Kd [1, 3]: 3.6 nM
Structure (SMILES): CO[C@H]1C[C@@H](C)C/C(C)=C/[C@@H](C/C=C/c2ccccn2)C(=O)C[C@H](O)[C@@H](C)[C@@H](/C(C)=C/[C@@H]2CC[C@@H](O)[C@H](OC)C2)OC(=O)[C@@H]2CCCCN2C(=O)C(=O)[C@]2(O)O[C@H]1[C@@H](OC)C[C@H]2C [Compound 05-050]

Kd [1, 3]: 1.2 nM
Structure (SMILES): CO[C@H]1C[C@@H](C)C/C(C)=C/[C@@H](C/C=C/c2ccncc2)C(=O)C[C@H](O)[C@@H](C)[C@@H](/C(C)=C/[C@@H]2CC[C@@H](O)[C@H](OC)C2)OC(=O)[C@@H]2CCCCN2C(=O)C(=O)[C@]2(O)O[C@H]1[C@@H](OC)C[C@H]2C [Compound 05-051]

Kd [1, 3]: 0.6 nM
Structure (SMILES): CO[C@H]1C[C@@H](C)C/C(C)=C/[C@@H](C/C=C/c2cccc[n+]2[O-])C(=O)C[C@H](O)[C@@H](C)[C@@H](/C(C)=C/[C@@H]2CC[C@@H](O)[C@H](OC)C2)OC(=O)[C@@H]2CCCCN2C(=O)C(=O)[C@]2(O)O[C@H]1[C@@H](OC)C[C@H]2C [Compound 05-060]

Kd [1, 3]: 0.2 nM
Structure (SMILES): CO[C@H]1C[C@@H](C)C/C(C)=C/[C@@H](C/C=C/c2cc[n+]([O-])cc2)C(=O)C[C@H](O)[C@@H](C)[C@@H](/C(C)=C/[C@@H]2CC[C@@H](O)[C@H](OC)C2)OC(=O)[C@@H]2CCCCN2C(=O)C(=O)[C@]2(O)O[C@H]1[C@@H](OC)C[C@H]2C [Compound 05-061]
